# Source: US20260176320A1, “MODULATORS OF G-PROTEIN COUPLED RECEPTORS” (priority 2018, published 2026)
# Where two headings read alike, the source gives them in different places.
# Experiments:
# [1] = target: GLP-1R (Homo sapiens, UniProt P43220); assay: HitHunter cAMP assay (GLP-1R); type: cell-based; conditions: cAMP; for EC50: EC50 GLP-1R/nM; for Emax: read-out: (Emax) GLP-1R
# Outline: (§1)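 Duplicate 22-point, 2-fold agonist titrations applied to receptor-expressing suspension cells in IBMX-containing HBSS; 30 min RT stimulation. Read: luminescent cAMP immunocompetition after O/N dark incubation.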
# [2] = target: T1, GIP-R (Homo sapiens, UniProt P48546); assay: HitHunter cAMP assay (GIP-R); type: cell-based; conditions: cAMP; for EC50: EC50 GIP-R/nM; for Emax: read-out: (Emax) GIP-R
# T1 sequence (P48546 22-466): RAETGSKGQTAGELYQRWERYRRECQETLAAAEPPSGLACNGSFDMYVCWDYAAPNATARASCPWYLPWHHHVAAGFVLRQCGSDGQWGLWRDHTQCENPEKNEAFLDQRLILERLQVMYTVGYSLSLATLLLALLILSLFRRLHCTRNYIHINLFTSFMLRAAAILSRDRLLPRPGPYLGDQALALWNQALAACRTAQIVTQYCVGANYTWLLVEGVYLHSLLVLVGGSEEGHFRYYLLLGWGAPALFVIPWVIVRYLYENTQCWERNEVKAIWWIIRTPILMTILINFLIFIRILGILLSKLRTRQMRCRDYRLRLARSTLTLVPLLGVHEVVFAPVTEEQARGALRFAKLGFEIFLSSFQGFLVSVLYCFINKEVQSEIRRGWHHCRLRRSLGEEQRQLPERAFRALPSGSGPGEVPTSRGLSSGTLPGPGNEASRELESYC
# Outline: as §1
# Sequence of GLP-1R (P43220 24-463): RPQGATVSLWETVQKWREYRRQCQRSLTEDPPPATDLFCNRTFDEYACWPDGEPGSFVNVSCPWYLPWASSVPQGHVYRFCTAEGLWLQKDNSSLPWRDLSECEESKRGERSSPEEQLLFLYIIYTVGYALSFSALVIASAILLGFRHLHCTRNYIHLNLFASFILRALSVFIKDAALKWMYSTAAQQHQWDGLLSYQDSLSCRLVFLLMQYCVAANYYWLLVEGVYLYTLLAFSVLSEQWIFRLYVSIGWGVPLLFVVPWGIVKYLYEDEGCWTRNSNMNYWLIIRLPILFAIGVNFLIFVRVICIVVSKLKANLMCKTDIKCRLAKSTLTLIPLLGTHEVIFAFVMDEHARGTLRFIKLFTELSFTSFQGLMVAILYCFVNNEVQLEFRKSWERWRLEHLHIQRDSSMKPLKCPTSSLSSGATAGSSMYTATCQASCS
Compound,EC50 ([1]; Table 3),EC50 ([1]; Table 3A),Emax ([1]; Table 3),Emax ([1]; Table 3A),EC50 ([2]; Table 3),EC50 ([2]; Table 3A),Emax ([2]; Table 3),Emax ([2]; Table 3A)
CCCCCCCCCCCCCCCC(=O)N[C@@H](CCC(=O)NCCCC[C@H](NC(=O)[C@H](CO)NC(=O)[C@@H]1CCCN1C(=O)[C@@H]1CCCN1C(=O)[C@@H]1CCCN1C(=O)[C@H](C)NC(=O)CNC(=O)[C@H](CO)NC(=O)[C@H](CO)NC(=O)[C@@H]1CCCN1C(=O)CNC(=O)CNC(=O)[C@H](C)NC(=O)[C@H](CC(C)C)NC(=O)[C@H](CC(C)C)NC(=O)[C@H](Cc1c[nH]c2ccccc12)NC(=O)[C@H](CC(N)=O)NC(=O)[C@@H](NC(=O)[C@H](Cc1ccccc1)NC(=O)[C@H](CCC(=O)O)NC(=O)C(C)(C)NC(=O)[C@H](C)NC(=O)[C@H](C)NC(=O)[C@H](CCC(N)=O)NC(=O)[C@H](CCCCN)NC(=O)[C@H](CC(=O)O)NC(=O)[C@H](CC(C)C)NC(=O)[C@H](Cc1ccc(O)cc1)NC(=O)[C@@H](NC(=O)[C@H](CO)NC(=O)[C@H](Cc1ccc(O)cc1)NC(=O)[C@H](CC(=O)O)NC(=O)[C@H](CO)NC(=O)[C@@H](NC(=O)[C@H](Cc1ccccc1)NC(=O)[C@@H](NC(=O)CNC(=O)[C@H](CCC(=O)O)NC(=O)CSCC(=O)NCCN1C(=O)C[C@@H](C)C1=O)[C@@H](C)O)[C@@H](C)O)[C@@H](C)CC)C(C)C)C(N)=O)C(=O)O [Compound 89],1 to 10 nM,1 to 10 nM,108%,108%,0.1 to 1 nM,0.1 to 1 nM,81%,81%
CCCCCCCCCCCCCCCC(=O)N[C@@H](CCC(=O)NCCCC[C@H](NC(=O)[C@H](CO)NC(=O)[C@@H]1CCCN1C(=O)[C@@H]1CCCN1C(=O)[C@@H]1CCCN1C(=O)[C@H](C)NC(=O)CNC(=O)[C@H](CO)NC(=O)[C@H](CO)NC(=O)[C@@H]1CCCN1C(=O)CNC(=O)CNC(=O)[C@H](C)NC(=O)[C@H](CC(C)C)NC(=O)[C@H](CC(C)C)NC(=O)[C@H](Cc1c[nH]c2ccccc12)NC(=O)[C@H](CC(N)=O)NC(=O)[C@@H](NC(=O)[C@H](Cc1ccccc1)NC(=O)[C@H](CCC(=O)O)NC(=O)C(C)(C)NC(=O)[C@H](C)NC(=O)[C@H](C)NC(=O)[C@H](CCC(N)=O)NC(=O)[C@H](CCCCN)NC(=O)[C@H](CC(=O)O)NC(=O)[C@H](CC(C)C)NC(=O)[C@H](Cc1ccc(O)cc1)NC(=O)[C@@H](NC(=O)[C@H](CO)NC(=O)[C@H](Cc1ccc(O)cc1)NC(=O)[C@H](CC(=O)O)NC(=O)[C@H](CO)NC(=O)[C@@H](NC(=O)[C@H](Cc1ccccc1)NC(=O)[C@@H](NC(=O)CNC(=O)[C@H](CCC(=O)O)NC(=O)CSCC(=O)NCCN1C(=O)C2=C(CCCC2)C1=O)[C@@H](C)O)[C@@H](C)O)[C@@H](C)CC)C(C)C)C(N)=O)C(=O)O [Compound 100],10 to 100 nM,10 to 100 nM,95%,95%,1 to 10 nM,1 to 10 nM,100%,100%
CCCCCCCCCCCCCCCC(=O)N[C@@H](CCC(=O)NCCCC[C@H](NC(=O)[C@H](CO)NC(=O)[C@@H]1CCCN1C(=O)[C@@H]1CCCN1C(=O)[C@@H]1CCCN1C(=O)[C@H](C)NC(=O)CNC(=O)[C@H](CO)NC(=O)[C@H](CO)NC(=O)[C@@H]1CCCN1C(=O)CNC(=O)CNC(=O)[C@H](C)NC(=O)[C@H](CC(C)C)NC(=O)[C@H](CC(C)C)NC(=O)[C@H](Cc1c[nH]c2ccccc12)NC(=O)[C@H](CC(N)=O)NC(=O)[C@@H](NC(=O)[C@H](Cc1ccccc1)NC(=O)[C@H](CCC(=O)O)NC(=O)C(C)(C)NC(=O)[C@H](C)NC(=O)[C@H](C)NC(=O)[C@H](CCC(N)=O)NC(=O)[C@H](CCCCN)NC(=O)[C@H](CC(=O)O)NC(=O)[C@H](CC(C)C)NC(=O)[C@H](Cc1ccc(O)cc1)NC(=O)[C@@H](NC(=O)[C@H](CO)NC(=O)[C@H](Cc1ccc(O)cc1)NC(=O)[C@H](CC(=O)O)NC(=O)[C@H](CO)NC(=O)[C@@H](NC(=O)[C@H](Cc1ccccc1)NC(=O)[C@@H](NC(=O)CNC(=O)[C@H](CCC(=O)O)NC(=O)CSCC(=O)NCCN1C(=O)CC2(CCCC2)C1=O)[C@@H](C)O)[C@@H](C)O)[C@@H](C)CC)C(C)C)C(N)=O)C(=O)O [Compound 102],1 to 10 nM,1 to 10 nM,104%,104%,10 to 100 nM,10 to 100 nM,34%,34%
CCCCCCCCCCCCCCCC(=O)N[C@@H](CCC(=O)NCCCC[C@H](NC(=O)[C@H](CO)NC(=O)[C@@H]1CCCN1C(=O)[C@@H]1CCCN1C(=O)[C@@H]1CCCN1C(=O)[C@H](C)NC(=O)CNC(=O)[C@H](CO)NC(=O)[C@H](CO)NC(=O)[C@@H]1CCCN1C(=O)CNC(=O)CNC(=O)[C@H](C)NC(=O)[C@H](CC(C)C)NC(=O)[C@H](CC(C)C)NC(=O)[C@H](Cc1c[nH]c2ccccc12)NC(=O)[C@H](CC(N)=O)NC(=O)[C@@H](NC(=O)[C@H](Cc1ccccc1)NC(=O)[C@H](CCC(=O)O)NC(=O)C(C)(C)NC(=O)[C@H](C)NC(=O)[C@H](C)NC(=O)[C@H](CCC(N)=O)NC(=O)[C@H](CCCCN)NC(=O)[C@H](CC(=O)O)NC(=O)[C@H](CC(C)C)NC(=O)[C@H](Cc1ccc(O)cc1)NC(=O)[C@@H](NC(=O)[C@H](CO)NC(=O)[C@H](Cc1ccc(O)cc1)NC(=O)[C@H](CC(=O)O)NC(=O)[C@H](CO)NC(=O)[C@@H](NC(=O)[C@H](Cc1ccccc1)NC(=O)[C@@H](NC(=O)CNC(=O)[C@H](CCC(=O)O)NC(=O)CSCC(=O)NCCN1C(=O)[C@H]2CCC[C@H]2C1=O)[C@@H](C)O)[C@@H](C)O)[C@@H](C)CC)C(C)C)C(N)=O)C(=O)O [Compound 103],10 to 100 nM,10 to 100 nM,95%,95%,1 to 10 nM,1 to 10 nM,68%,68%
CC[C@H](C)[C@H](NC(=O)[C@H](CO)NC(=O)[C@H](Cc1ccc(O)cc1)NC(=O)[C@H](CC(=O)O)NC(=O)[C@H](CO)NC(=O)[C@@H](NC(=O)[C@H](Cc1ccccc1)NC(=O)[C@@H](NC(=O)CNC(=O)[C@H](CCC(=O)O)NC(=O)CSCC(=O)NCCN1C(=O)CCc2cccnc21)[C@@H](C)O)[C@@H](C)O)C(=O)N[C@@H](Cc1ccc(O)cc1)C(=O)N[C@@H](CC(C)C)C(=O)N[C@@H](CC(=O)O)C(=O)N[C@@H](CCCCN)C(=O)N[C@@H](CCC(N)=O)C(=O)N[C@@H](C)C(=O)N[C@@H](C)C(=O)NC(C)(C)C(=O)N[C@@H](CCC(=O)O)C(=O)N[C@@H](Cc1ccccc1)C(=O)N[C@H](C(=O)N[C@@H](CC(N)=O)C(=O)N[C@@H](Cc1c[nH]c2ccccc12)C(=O)N[C@@H](CC(C)C)C(=O)N[C@@H](CC(C)C)C(=O)N[C@@H](C)C(=O)NCC(=O)NCC(=O)N1CCC[C@H]1C(=O)N[C@@H](CO)C(=O)N[C@@H](CO)C(=O)NCC(=O)N[C@@H](C)C(=O)N1CCC[C@H]1C(=O)N1CCC[C@H]1C(=O)N1CCC[C@H]1C(=O)N[C@@H](CO)C(=O)N[C@@H](CCCCN)C(N)=O)C(C)C [Compound 106],10 to 100 nM,10 to 100 nM,95%,95%,10 to 100 nM,10 to 100 nM,37%,37%
CC[C@H](C)[C@H](NC(=O)[C@H](CO)NC(=O)[C@H](Cc1ccc(O)cc1)NC(=O)[C@H](CC(=O)O)NC(=O)[C@H](CO)NC(=O)[C@@H](NC(=O)[C@H](Cc1ccccc1)NC(=O)[C@@H](NC(=O)CNC(=O)[C@H](CCC(=O)O)NC(=O)CSCC(=O)NCCN1C(=O)c2ccc([N+](=O)[O-])cc2C1=O)[C@@H](C)O)[C@@H](C)O)C(=O)N[C@@H](Cc1ccc(O)cc1)C(=O)N[C@@H](CC(C)C)C(=O)N[C@@H](CC(=O)O)C(=O)N[C@@H](CCCCN)C(=O)N[C@@H](CCC(N)=O)C(=O)N[C@@H](C)C(=O)N[C@@H](C)C(=O)NC(C)(C)C(=O)N[C@@H](CCC(=O)O)C(=O)N[C@@H](Cc1ccccc1)C(=O)N[C@H](C(=O)N[C@@H](CC(N)=O)C(=O)N[C@@H](Cc1c[nH]c2ccccc12)C(=O)N[C@@H](CC(C)C)C(=O)N[C@@H](CC(C)C)C(=O)N[C@@H](C)C(=O)NCC(=O)NCC(=O)N1CCC[C@H]1C(=O)N[C@@H](CO)C(=O)N[C@@H](CO)C(=O)NCC(=O)N[C@@H](C)C(=O)N1CCC[C@H]1C(=O)N1CCC[C@H]1C(=O)N1CCC[C@H]1C(=O)N[C@@H](CO)C(=O)N[C@@H](CCCCN)C(N)=O)C(C)C [Compound 107],10 to 100 nM,10 to 100 nM,57%,57%,0.1 to 1 nM,0.1 to 1 nM,124%,124%
